# Test results as given in patent US20070191490A1, “Withacnistin compounds for treatment of cancer” (priority 2006, published 2007).
# Where two headings read alike, the source gives them in different places.
# Legend:
# [1] = system: phospho-Akt; experiment: phospho-Akt levels in A549 cells (Western blotting); assay type: cell-based, human; settings: 10 μM, 4 hours
# Experimental: (§1) Western blotting. Treated cell samples were lysed in 30 mM HEPES, pH 7.5, 10 mM NaCl, 5 mM MgCl2, 25 mM NaF, 1 mM EGTA, 1% Triton X-100, 10% glycerol, 2 mM sodium orthovanadate, 10 μg/ml aprotinin, 10μ/ml soybean trypsin inhibitor, 25 μg/ml leupeptin, 2 mM PMSF, and 6.4 mg/ml p-nitrophenylphosphate. Phospho-STAT3, phospho-AKT, phospho-Src, and phospho-p42/p44 MAPK antibodies were obtained from Cell Signaling Technologies (Cambridge, Mass., USA). Phospho-JNK and whole STAT3 antibodies were purchased from Santa Cruz Biotechnology (Santa Cruz, Calif., USA); phospho-JAK2 antibody came from Upstate Biotechnology (Lake Placid, N.Y., USA). Membranes were blocked in either 5% milk in phosphate-buffered saline (PBS), pH 7.4, containing 0.1% Tween-20 (PBS-T) or 1% BSA in tris-buffered saline (TBS), pH 7.5, containing 0.1% Tween-20 (TBS-T). Phospho-specific antibodies (excepting P-MAPK and P-JNK) were incubated in 1% BSA in TBS-T while all other antibodies were diluted in 5% milk in PBS-T for either 2 h at room temperature or overnight at 4° C. HRP-conjugated secondary antibodies (Jackson ImmunoResearch, West Grove, Pa., USA) were diluted in 5% milk in either PBS-T or TBS-T at 1:1000 dilution for 1 h at room temperature. […]
# (§2) It was next determined whether withacnistin and the Cuc analogs are selective for the JAK2/STAT3 pathway over other signal transduction pathways. […]
# [2] = system: phospho-JNK; experiment: phospho-JNK levels in A549 cells (Western blotting); assay type: cell-based, human; settings: 10 μM, 4 hours
# Experimental: as §1, §2
# [3] = system: vector/3T3 cells; experiment: TUNEL apoptosis assay, vector NIH 3T3; assay type: cell-based, murine; settings: 10 μM withacnistin mixture, 24 hours
# Experimental: (§3) In vitro cellular proliferation and TUNEL assays. Subconfluent A549, MDA-MB-435, MDA-MB-453, MDAMB-468, v-Src transformed NIH 3T3 (v-Src/3T3), H-Ras transformed NIH 3T3 (H-Ras/3T3), and vector NIH 3T3 cells were grown in the presence of 10 μM cucurbitacin A, cucurbitacin I, withacnistin mixture, or DMSO vehicle control. After 24 hours, cells were harvested by trypsinization and counted via trypan blue exclusion assay to determine cellular viability. In all, 75,000-150,000 cells (depending on cell line) were then spun onto glass slides using a Cytospin 3 centrifuge (Thermo Shandon Inc., Pittsburgh, Pa., USA). After fixing cells to the slides with 4% paraformaldehyde in PBS, pH 7.5, for 1 h at room temperature, cells were labeled for apoptotic DNA strand breaks by TUNEL reaction using an in situ cell death detection kit (Roche Applied Science, Indianapolis, Ind., USA) according to the manufacturer's instructions, then mounted in Vectashield mounting medium (Vector Laboratories, Burlingame, Calif., USA) containing 4′,6-diamidino-2-phenylindole (DAPI) to counterstain DNA. […] TUNELpositive nuclei were counted and compared to DAPI-stained nuclei to determine the percent induction of apoptosis by the different cucurbitacin compounds. Statistical significance between control and treated tumors were evaluated by using Student's t-test. […]
# [4] = biological target: T1, STAT3 (Homo sapiens, UniProt P40763); experiment: Growth factor/cytokine stimulation of STAT3 tyrosine phosphorylation; assay type: cell-based
# T1 construct: endogenous in cells; host or cells: U266; MDA-MB-468
# Experimental: Furthermore, it is not know whether Wit suppresses constitutive or stimulated P-STAT3 levels selectively over other STAT family members such as STAT1 and STAT5. To this end, a variety of human cancer cell lines were treated with Wit and stimulated with growth factors or cytokines known to activate STAT family members as described under Methods. […] Pretreatment of U266 cells with W or WM blocked this IL-6 activation of STAT3 in a dose-dependent manner. In contrast, IL-6 activation of STAT1 in these cells was not affected by Wit pretreatment (FIG. 9B).
# [5] = system: SOCS3; experiment: SOCS3 levels in cancer cell lines; assay type: cell-based, human; settings: A549 cells
# Experimental: Activation of STAT3 occurs through its tyrosine phosphorylation. Inactivation of STAT3 can occur through several mechanisms including dephosphorylation by phosphotyrosine protein phosphatases as well as blocking STAT3 activation by SOCS3, which binds and prevents kinases from activating STAT3. To determine whether Wit also affects negative regulators of STAT3, its effects on SOCS3 were determined. To this end, A549 cells were first treated with Wit for various periods of time and its effects on both P-STAT3 and SOCS3 were determined. […] However, by 24 hours, Wit suppressed both P-STAT3 and total STAT3 levels (data not shown). […] It is important to note that WM had little effect on […] protein levels (FIGS. 11A and 11C).
# [6] = biological target: T2, Src kinase (Homo sapiens, UniProt P12931); experiment: Src kinase inhibition in vitro; assay type: biochemical; settings: data not shown
# Source text: The actual biochemical targets for cucurbitacins are not known. […] Possible tyrosine kinases that could be targets are the Src family of kinases. Src kinase itself was not inhibited in vitro by Cuc I (Blaskovich, M. A. et al. Cancer Res., 2003, 63:1270-1279) and withacnistin (data not shown).
# [7] = system: MDA-MB-453 cells; experiment: TUNEL apoptosis assay, MDA-MB-453; assay type: cell-based, human; settings: 10 μM withacnistin mixture, 24 hours
# Experimental: as §3
# [8] = system: MDA-MB-435 cells; experiment: TUNEL apoptosis assay, MDA-MB-435; assay type: cell-based, human; settings: 10 μM withacnistin mixture, 24 hours
# Experimental: as §3
# [9] = system: phosphotyrosine-STAT3; experiment: Inhibition of phosphotyrosine-STAT3 levels in tumor cell lines (Western blotting); assay type: cell-based, human; settings: A549 cells, by 24 hours; data not shown
# [10] = biological target: T2, Src kinase; settings: Blaskovich et al. 2003; cited from earlier work
# T1 sequence (P40763 2-770 limits assumed): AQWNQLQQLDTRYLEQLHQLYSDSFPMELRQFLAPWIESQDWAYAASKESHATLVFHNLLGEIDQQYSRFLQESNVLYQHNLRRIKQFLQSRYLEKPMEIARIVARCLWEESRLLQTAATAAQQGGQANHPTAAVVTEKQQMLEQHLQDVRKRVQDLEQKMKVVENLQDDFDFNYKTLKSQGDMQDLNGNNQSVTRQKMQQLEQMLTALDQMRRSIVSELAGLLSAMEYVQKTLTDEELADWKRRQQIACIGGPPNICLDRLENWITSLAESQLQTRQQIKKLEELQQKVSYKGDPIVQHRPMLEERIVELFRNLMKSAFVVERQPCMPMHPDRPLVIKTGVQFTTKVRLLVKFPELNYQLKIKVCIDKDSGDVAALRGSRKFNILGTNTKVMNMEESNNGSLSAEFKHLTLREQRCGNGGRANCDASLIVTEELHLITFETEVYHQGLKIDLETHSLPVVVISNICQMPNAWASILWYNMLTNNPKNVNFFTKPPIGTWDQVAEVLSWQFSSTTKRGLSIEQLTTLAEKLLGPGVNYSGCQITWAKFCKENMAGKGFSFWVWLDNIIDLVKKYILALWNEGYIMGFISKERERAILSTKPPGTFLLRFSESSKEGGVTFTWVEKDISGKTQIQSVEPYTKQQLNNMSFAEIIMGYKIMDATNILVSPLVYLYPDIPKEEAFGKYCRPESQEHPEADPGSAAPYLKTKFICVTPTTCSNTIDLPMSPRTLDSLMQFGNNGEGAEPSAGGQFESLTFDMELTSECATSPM
# T2 sequence (P12931 whole entry): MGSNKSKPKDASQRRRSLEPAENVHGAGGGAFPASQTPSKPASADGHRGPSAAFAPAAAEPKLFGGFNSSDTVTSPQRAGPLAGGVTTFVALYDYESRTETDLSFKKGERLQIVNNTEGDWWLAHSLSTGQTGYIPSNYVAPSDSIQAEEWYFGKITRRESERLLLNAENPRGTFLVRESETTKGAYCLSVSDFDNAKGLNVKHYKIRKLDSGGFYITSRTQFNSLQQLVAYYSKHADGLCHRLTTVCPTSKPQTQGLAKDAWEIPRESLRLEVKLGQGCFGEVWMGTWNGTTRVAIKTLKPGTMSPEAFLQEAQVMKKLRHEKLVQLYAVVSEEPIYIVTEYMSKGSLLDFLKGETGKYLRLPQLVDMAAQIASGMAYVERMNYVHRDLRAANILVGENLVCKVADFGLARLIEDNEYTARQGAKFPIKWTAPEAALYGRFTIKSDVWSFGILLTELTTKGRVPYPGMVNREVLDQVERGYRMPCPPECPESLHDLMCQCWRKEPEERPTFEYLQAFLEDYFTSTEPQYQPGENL
smiles,measurement,setting,value
"CC(=O)OC(C)(C)/C=C/C(=O)[C@](C)(O)[C@H]1[C@H](O)C[C@@]2(C)[C@@H]3CC=C4[C@@H](C[C@H](O)C(=O)C4(C)C)[C@]3(CO)C(=O)C[C@]12C [Cuc A, cucurbitacin A]",phosphotyrosine levels of Akt,[1],little inhibitory activity
same,phosphotyrosine levels of JNK1,[2],little inhibitory activity
CC(=O)OC[C@]12CC[C@H]3[C@@H](C[C@H]4O[C@]45[C@@H](O)C=CC(=O)[C@]35C)[C@@H]1CC[C@@H]2[C@H](C)[C@H]1CC(C)=C(C)C(=O)O1 [withacnistin],apoptosis (TUNEL-positive cells),[3],7.3±3.9%
same,fold increase of apoptosis over control,[3],4.2 fold
same,EGF activation of STAT3,[4]; MDA-MB-468 cells,inhibited
same,IL-6 activation of STAT3 (tyrosine phosphorylation),"[4]; U266 cells, pretreatment, dose-dependent",blocked
same,PDGF-stimulated tyrosine phosphorylation of STAT3,[4]; pretreatment (FIG. 9D),inhibited
same,levels of SOCS3,[5],induced
same,onset of SOCS3 induction,[5],detectable only after two hours
same,inhibition of Src kinase in vitro,[6],not inhibited
same,increase of percentage of apoptotic cells compared to vehicle control,[7],4.7 fold
same,increase of percentage of apoptotic cells compared to vehicle control,[8],25.9 fold
same,P-STAT3 levels,[9],suppressed
"CC(C)(O)/C=C/C(=O)[C@](C)(O)[C@H]1[C@H](O)C[C@@]2(C)[C@@H]3CC=C4[C@@H](C=C(O)C(=O)C4(C)C)[C@]3(C)C(=O)C[C@]12C [Cuc I, cucurbitacin I]",inhibition of Src kinase in vitro,[10],not inhibited
